In PubChem BioAssay AID720660 (The Scripps Research Institute Molecular Screening Center, 2013):
Active and inactive are the calls of the source.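 How the source made its calls: active means EC50 of 10 µM or lower, the dose giving half of maximal activation; inactive means the rest.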

Tested on: MG132 cells, BRM-dependent luciferase reporter, 24 h
Assay: SMARCA2 (BRM) activator potency, late-stage follow-up, cell-based, luminescence, dose response (AID 720660)

EC50	SMILES
> 91.2 µM (inactive)	Cc1cc(C)c2nc(NC(=O)C(C)C)sc2c1
> 91.2 µM (inactive)	Cc1ccc(Nc2nc(-c3ccccc3)c(C)s2)cc1
> 91.2 µM (inactive)	O=C(NCC1(c2nc(-c3ccccc3)cs2)CCOCC1)c1cccc(-c2noc(C(F)(F)F)n2)c1
> 91.2 µM (inactive)	Clc1ccc(Cc2nc(-c3ccccc3)cs2)cc1
> 91.2 µM (inactive)	COc1ccc(-c2nc(C#N)c(NC3CC3)o2)cc1
> 91.2 µM (inactive)	Cc1nc(NC(=O)c2cccc(Br)c2)sc1C
> 91.2 µM (inactive)	Oc1ccccc1OCc1nc2ccccc2s1
